Biological target: T1, caspase-3 (Homo sapiens, UniProt P42574)
T1 construct: host or cells: HFDPC-c cells (follicle dermal papilla cells)
T1 sequence (P42574 29-175 limits assumed): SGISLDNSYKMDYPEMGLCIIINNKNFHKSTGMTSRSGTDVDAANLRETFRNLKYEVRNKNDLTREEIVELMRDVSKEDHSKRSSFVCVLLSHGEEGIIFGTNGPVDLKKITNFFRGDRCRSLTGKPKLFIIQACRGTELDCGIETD
T1 sequence (P42574 176-277 limits assumed): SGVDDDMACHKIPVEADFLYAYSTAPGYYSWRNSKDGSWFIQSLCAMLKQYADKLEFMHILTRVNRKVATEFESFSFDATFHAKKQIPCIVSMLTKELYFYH
Experiment: Caspase-3 activity (ApoTarget Caspase-3/CPP32 colorimetric test, DEVD-pNA) in HFDPC-c cells with Staurosporine-induced apoptosis
Assay type: cell-based
Details: for % Inhibition of caspase activity / % Caspase-3 activity: Staurosporine 1 μM, 24 h, number in label = concentration [μM] per Table A; for % Inhibition of caspase activity: ST alone = 0%; for % Caspase-3 activity: related to 100% activity for 1 μM Staurosporine
Description: The activity of caspase-3 has been assessed by using the colorimetric test ApoTarget™Caspase-3/CPP32 with DEVD-pNA as the substrate (BioSource International, Camarillo, Calif.). DEVD-pNA consists of a chromophore group (p-nitroanilide (p-NA) and a synthetic tetrapeptide (DEVD-Asp-Glu-Val-Asp) that represents the consensus sequence for the proteolytic cut catalyzed by caspase-3. The test was carried out by following the specifications indicated by the manufacturer in detail, using an equal amount of total protein (200 μg) for every sample.
Every sample was tested in duplicate. The activity was assessed by measuring the absorbance at 405 nm (in the graphics, ABS 405 nm) with an automatic spectrometer for 96-well plates (MPT Reader DV990 BVG) that carries out a double reading for every well.
Cellular lysis is a technique applied to extract all of the proteins in the cultured cells to be analyzed. Various lysis protocols exist: the one used in the experimental tests described here consists of the use of a highly denaturing buffer (lysis buffer, provided within the kit for the test of the caspase-3 activity). After incubation with the various active ingredients, the lysis buffer is placed onto the cell plates, a scraper is then used directly on the layer of cells to help collect the largest quantity possible. The protein extraction is then improved with incubation on ice (4° C.) for 10 minutes. The cellular debris are precipitated with centrifugation at 10,000×g for 1 minute. The lysates are retrieved and frozen at −80° C.
The activity of caspase-3 was assessed by using the colorimetric assay ApoTarget™Caspase-3/CPP32, and the concentration of the protein was assessed by using the Lowry-Ciocalteau method and a BSA standard as described above.
The incubation was also maintained for 24 hours in this case.
At the end of the incubation the plates in which the cells were cultivated were laid out on a bed of ice, washed once in cold PBS and incubated in the lysis buffer. After the lysis, the protein assay and the caspase-3 activity test was carried out.

| % Inhibition of caspase activity | % Inhibition of caspase activity (listed as Z4) | % Caspase-3 activity | % Caspase-3 activity (listed as Z4) | % Inhibition of caspase activity (listed as R20) | % Caspase-3 activity (listed as R20) | Structure (SMILES) | induction of apoptosis (caspase-3 activity) (1 μM, 24-hour incubation, FIG. 1) |
| --- | --- | --- | --- | --- | --- | --- | --- |
| 29.00% | 13.20% | 71.00% | 86.80% | – | – | CC1=C(/C=C/C(C)=C/C=C/C(C)=C/C=C/C=C(C)/C=C/C=C(C)/C=C/C2=C(C)C[C@@H](O)CC2(C)C)C(C)(C)C[C@H](O)C1 [Example Z0.4, Zeaxanthin] | – |
| 21.64% | – | 78.36% | – | – | – | Cl.Cl.Cl.NCCCCNCCCN [Example S0.1, Spermidine trihydrochloride] | – |
| 32.10% | – | 67.90% | – | 46.27% | 53.73% | C[C@@H]1O[C@@H](OC[C@H]2O[C@@H](Oc3c(-c4ccc(O)c(O)c4)oc4cc(O)cc(O)c4c3=O)[C@H](O)[C@@H](O)[C@@H]2O)[C@H](O)[C@H](O)[C@H]1O [Example R2, Rutin] | – |
| – | – | – | – | – | – | CN[C@@H]1C[C@H]2O[C@@](C)([C@@H]1OC)n1c3ccccc3c3c4c(c5c6ccccc6n2c5c31)C(=O)NC4 [Staurosporine, reference compound] | increase in caspase-3 activity |

From patent US8729033B2, “Therapeutic, dietary or cosmetic use of compounds with specific anti-apoptotic activity toward caspase-3, and compositions containing these compounds” (Giuliani S.p.A., priority 2008, dated 2014)
